Here are results for four molecules from article PMC7284918, “In-Depth Characterization of EpiIntestinal Microtissue as a Model for Intestinal Drug Absorption and Metabolism in Human” (Pharmaceutics, 2020).

Series [1] deals with T1, CYP2D6 (Homo sapiens, UniProt P10635).
T1 construct: endogenous in cells; host or cells: Caco-2 cells in 96-well Transwell inserts
The experiment in a line: DME activity in Caco-2: CYP2D6. The following applies: CYP2D6/Dextromethorphan, metabolite Dextrorphan. The format is in vitro ADME.
Description: (§2) For measurements of DME activities in EpiIntestinal microtissues and Caco-2 cells, both were cultured in 96-well Transwell inserts. Drugs (Table 1) were dissolved in the respective solvent at 200x concentration and diluted in a pre-warmed transport buffer. Diluted substrate solution was applied to the apical (100 µL) and basal (250 µL) compartment of the Transwell and incubated at 37 °C and 5% CO2 and 60 rpm continuous shaking. DME activities were determined by monitoring metabolite formation in basal compartment over time (0, 0.5, 1, 2, 3 and 4 h) with LC-MS/MS. […] Chromatographic separation of samples was performed on YMC Triart C18 (1.9 µm, 30 × 2 mm; YMC Europe, Dinslaken, Germany) LC analytical column. Quantification of all metabolites listed in Table 1 was achieved by the use of calibration curves for the individual metabolites with appropriate concentration ranges.
(§3) A total of 10 µL of the incubation sample were diluted with 90 µL of water containing 10–20% ACN or methanol, 0.1% formic acid and the respective internal standard. To analyze the intracellular metabolite concentration, cells on Transwell inserts were washed twice with ice-cold PBS and stored at −80 °C for 20 min. Afterwards, 150 µL 50% ACN diluted with transport buffer was added to the cells and incubated at room temperature for 30 min. […]

Series [2] concerns the target T1, CYP2D6. In words: DME activity in EpiIntestinal microtissues: CYP2D6. It counts as in vitro ADME. The settings on record: CYP2D6/Dextromethorphan, metabolite Dextrorphan.
Description: as §2, §3
Series [3] has as its system EpiIntestinal microtissues. In words: Bidirectional permeability assay in EpiIntestinal microtissues. The format is in vitro ADME, human. The method, then:
Caco-2 cells were obtained from Leibniz Institute DSMZ-German Collection of Microorganisms and Cell Cultures (Braunschweig, Germany) and cultured in DMEM containing 10% FCS, 1% NEAA, 2 mM Glutamin, 100 U/mL Penicillin and 100 µg/mL Streptomycin. […] EpiIntestinal microtissues were obtained from MatTek (Bratislav, Slovakia) and cultured according to the manufacturer’s instruction (24-well format for bidirectional permeability assays and GI firstpass availability assays and 96-well format for screening of DME activities).
Bidirectional permeability assays were performed as described previously. […] In indicated experiments, inhibitors were added to both compartments. Cells were incubated with the compounds for up to 2 h. Samples from the opposite compartment were taken at different timepoints. […] Prior to bioanalysis samples were spiked with internal standard solution and diluted with acetonitrile (ACN) for protein precipitation. Measurement was operated in multiple reaction monitoring (MRM) mode. Quantification was performed using external calibration. Apparent permeability coefficients in the apical to basal direction (Papp,AB) and in the basal to apical direction (Papp,BA) and efflux were calculated as follows Papp,AB=QAB/(C0×s×t) Papp,BA=QBA/(C0×s×t) Efflux=Papp,BA/Papp,AB where Q is the amount of compound recovered in the receiver compartment after the incubation time t, C0 the initial compound concentration given to the donor compartment, and s the surface area of the Transwell inserts. Efflux ratio is calculated as the quotient of Papp,BA to Papp,AB. […] In addition, Transepithelial electrical resistance (TEER) values are measured for each plate before the permeability assay and total recovery in donor and receiver compartments was determined for each compound. All these parameters (efflux of apafant, Papp values of the low permeable compound, TEER values, and total recovery) are used to ensure the quality of the assays.

A further series has as its system BCRP. The experiment in a line: Bidirectional permeability assay in Caco-2. The format is in vitro ADME, human. The following applies: human, pH 7.4, with Ko-143 (3 µM), with BCRP inhibitor Ko-143 (3 µM). A general note: Passage across Caco-2 layers is used to estimate intestinal permeability.
A further series deals with P-gp. The experiment in a line: Bidirectional permeability assay in Caco-2. The settings on record: human, pH 7.4, with Zosuqidar (5 µM), with P-gp inhibitor Zosuqidar (5 µM). The format is in vitro ADME, human.
Series [4] is described as follows: Bidirectional permeability assay in Caco-2. The settings on record: human, no inhibitor, mean of duplicates. It counts as in vitro ADME, human.
For the next series, the system named is Caco-2 cells. The experiment in a line: Bidirectional permeability assay in Caco-2. It counts as in vitro ADME, human. The settings on record: with P-gp inhibitor Zosuqidar (5 µM).
Series [5] in a line: Intestinal first-pass availability in EpiIntestinal microtissues. The format is in vitro ADME, human. The following applies: human, EpiIntestinal microtissues, 10 µM apical, GI firstpass availability, read-out: Recovery in Basal Comp. @ 24h (%). The method, then: Compounds were diluted in culture media to a final concentration of 10 µM and added to the apical (donor) compartment (total volume: 100 µL for EpiIntestinal and 200 µL for Caco-2). After the incubation at 37 °C for 2, 4, 6, and 24 h, samples (50 µL) were taken from the basal (receiver) compartment (total volume: 5000 µL for EpiIntestinal and 800 µL for Caco-2). After the last timepoint, samples from the donor compartments and the cell lysates were also collected. Compound concentrations in the samples were determined by HPLC-MS/MS (Section 2.3).
GI first-pass availability of the tested compounds was expressed as fraction (%) of the total amount of a compound added to the donor compartment recovered in the receiver compartment.

The conditions of series [6]: human, clinical; cited from earlier work.
The next series can be described thus: in vitro. The following applies: human, blood.
The subject of series [7] is CES1 and CES2. The experiment in a line: CES-mediated metabolism of dabigatran etexilate in EpiIntestinal microtissues. It counts as in vitro ADME, human. The following applies: EpiIntestinal on Transwell; 10 µM apical; basal compartment. The method, then:
(§1) CES-mediated metabolism of dabigatran etexilate was measured in cryopreserved human hepatocytes (BioIVT, West Sussex, UK) and cryopreserved human intestinal mucosa (in vitro ADMET laboratories, Columbia, MD, USA) in suspension and in Caco-2 cells and EpiIntestinal microtissues grown on Transwell inserts. Dabigatran etexilate was diluted in culture media for the respective cells or tissues. The final concentrations of dabigatran etexilate were selected in an earlier experiment to ensure reasonable turnover of the compound within the incubation time: 2 µM for hepatocytes and intestinal mucosa, 10 µM for Caco-2 and EpiIntestinal microtissues. In the experiments with Transwell inserts, dabigatran etexilate was given to the apical compartments, metabolites were measured in the basal (receiver) compartments. Concentrations of the metabolites were determined by HPLC-MS/MS (Section 2.3).

The subject of series [8] is CES1 and CES2. In words: CES-mediated metabolism of dabigatran etexilate in human intestinal mucosa (HIM). The following applies: human intestinal mucosa in suspension; 2 µM. It counts as in vitro ADME. The method, then: as §1
The subject of series [9] is CES1 and CES2. In words: CES-mediated metabolism of dabigatran etexilate in Caco-2 cells. The format is in vitro ADME, human. The following applies: Caco-2 on Transwell; 10 µM apical; basal compartment. The method, then:
as §1

Series [10] deals with CES1 and CES2. The experiment in a line: CES-mediated metabolism of dabigatran etexilate in human hepatocytes (huHEP). The format is in vitro ADME. The settings on record: human hepatocytes in suspension; 2 µM. The method, then: as §1
Series [11] has as its system SULT. The experiment in a line: DME activity in EpiIntestinal microtissues: SULT. The format is in vitro ADME, human. The following applies: SULT/7-OH-Coumarin, metabolite 7-OH-Coumarin-Sulfat.
Description: as §2, §3
In series [12] the test system is SULT. The experiment in a line: DME activity in Caco-2: SULT. It counts as in vitro ADME, human. The settings on record: SULT/7-OH-Coumarin, metabolite 7-OH-Coumarin-Sulfat.
Description: as §2, §3
Series [13] relates to UGT. In words: DME activity in Caco-2: UGT. The format is in vitro ADME, human. The following applies: UGT/7-OH-Coumarin, metabolite 7-OH-Coumarin-Glucuronid.
Description: as §2, §3
The test system of series [14] is UGT. The experiment in a line: DME activity in EpiIntestinal microtissues: UGT. It counts as in vitro ADME, human. The settings on record: UGT/7-OH-Coumarin, metabolite 7-OH-Coumarin-Glucuronid.
Description: as §2, §3
Where [15] appears, read: with BCRP inhibitor Ko-143 (3 µM).
Where [16] appears, read: with P-gp inhibitor Zosuqidar (5 µM).

The structures appear in SMILES notation.

T1 sequence (P10635 whole entry): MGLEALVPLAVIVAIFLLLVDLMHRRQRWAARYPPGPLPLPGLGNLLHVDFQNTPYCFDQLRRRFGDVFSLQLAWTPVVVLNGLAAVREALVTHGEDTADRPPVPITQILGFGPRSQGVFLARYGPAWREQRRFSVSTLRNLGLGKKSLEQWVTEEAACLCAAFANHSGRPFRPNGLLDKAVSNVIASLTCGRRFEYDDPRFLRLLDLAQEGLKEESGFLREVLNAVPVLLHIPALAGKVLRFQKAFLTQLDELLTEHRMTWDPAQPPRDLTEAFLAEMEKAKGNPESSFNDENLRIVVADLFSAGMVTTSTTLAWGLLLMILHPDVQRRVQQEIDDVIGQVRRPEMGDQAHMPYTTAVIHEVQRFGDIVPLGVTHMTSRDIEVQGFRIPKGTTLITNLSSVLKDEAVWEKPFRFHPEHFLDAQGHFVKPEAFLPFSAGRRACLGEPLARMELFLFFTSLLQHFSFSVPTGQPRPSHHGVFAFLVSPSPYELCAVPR
Excerpt for in vitro: Blood CLb can be converted from plasma clearance CLp with the blood-to-plasma ratio RB: CLb=CLp/RB

In the case of `COc1ccc2c(c1)[C@]13CCCC[C@@H]1[C@H](C2)N(C)CC3` [Dextromethorphan], the “Intracellular Metabolite (% of Total)” value on CYP2D6 [1] and at CYP2D6 [2] was “BLQ” each time.
With `CC(C)c1nc(N(C)S(C)(=O)=O)nc(-c2ccc(F)cc2)c1/C=C/[C@@H](O)C[C@@H](O)CC(=O)O` [Rosuvastatin], the Efflux stood at 100.0 in series [3] (Papp,BA/Papp,AB, no inhibitor, mean of triplicates); 3.1 in series [3] (setting [15]); 25 in [3] (setting [16]). The results for the PappAB (in [3] (setting [15]); in [3] (setting [16]); in the series on Caco-2 cells) were 2.6 10^−6 cm/s, 0.9 10^−6 cm/s and 0.3 10^−6 cm/s, respectively. Besides, the efflux ratio at 10 µM worked out at 5.5 in the series with BCRP; 19 with P-gp; 21 in series [4] (pH 7.4, Papp,BA/Papp,AB). This molecule also gave a Papp A→B at 10 µM in series [4] (pH 7.4, 10 µM) of 0.3 ×10⁻⁶ cm/s. Besides, the recovery at 24 h, 10 µM in series [5] amounted to 30%. Also, the “F (total oral availability)” value in [6] was 0.2 [8]. Besides, in series [6], the “fe (fraction of renal excretion)” value is 0.3 [23]. In addition, the blood plasma ratio in the series “in vitro” amounted to 0.75.
As to `CCCCCCOC(=O)NC(=N)c1ccc(NCc2nc3cc(C(=O)N(CCC(=O)OCC)c4ccccn4)ccc3n2C)cc1` [dabigatran etexilate], the “Main metabolite of dabigatran etexilate” value in the series with CES1 and CES2 [7] is “BIBR 953”; in the series on CES1 and CES2 [8], “BIBR 951”; with CES1 and CES2 [9] it was “BIBR 1087”; in the series on CES1 and CES2 [10], “BIBR 1087”.
Take `O=c1ccc2ccc(O)cc2o1` [7-OH-Coumarin]: the “Intracellular Metabolite (% of Total)” value with SULT [11] is given as 3.4 % of Total; in the series on SULT [12] it was “BLQ”; with UGT [13], 5.5 % of Total; in the series with UGT [14] it was 10.0 % of Total.

As usually defined, the efflux ratio is the permeability from basolateral to apical divided by that in the opposite direction, in the common usage. Usually Papp A→B stands for the apparent permeability from the apical to the basolateral side of a cell layer.
